Data: PubChem BioAssay (NCI)
Where “and” joins values, the source holds several entries; their conditions need not be identical. Equal entries are not always repeated.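 Five compound concentrations were applied to cells in 96-well plates for 48 hours; endpoints were derived by simple linear interpolation of the resulting dose-response curve. Here, GI50 denotes the concentration required for 50% inhibition of growth. TGI: total growth inhibition.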

Columns and labels:
Experiment in all cases: NCI anticancer screen, dose series, 48 h
NCI-H226 lung = system: NCI-H226 lung
NCI-H23 lung = system: NCI-H23 lung
SK-OV-3 ovarian = system: SK-OV-3 ovarian
SK-MEL-28 melanoma = system: SK-MEL-28 melanoma
SNB-19 CNS = system: SNB-19 CNS
SF-539 CNS = system: SF-539 CNS
SNB-75 CNS = system: SNB-75 CNS
HCC-2998 colon = system: HCC-2998 colon
OVCAR-5 ovarian = system: OVCAR-5 ovarian
MALME-3M melanoma = system: MALME-3M melanoma

Compound	TGI (NCI-H226 lung) [µM]	TGI (NCI-H23 lung)	TGI (SK-OV-3 ovarian) [µM]	TGI (SK-MEL-28 melanoma)	TGI (SNB-19 CNS) [µM]	TGI (SF-539 CNS)	TGI (SNB-75 CNS)	TGI (HCC-2998 colon)	TGI (OVCAR-5 ovarian) [µM]	TGI (MALME-3M melanoma)	GI50 (NCI-H226 lung)	GI50 (NCI-H23 lung)	GI50 (SK-OV-3 ovarian)	GI50 (SK-MEL-28 melanoma)	GI50 (SNB-19 CNS)	GI50 (SF-539 CNS)	GI50 (SNB-75 CNS)	GI50 (HCC-2998 colon)	GI50 (OVCAR-5 ovarian)	GI50 (MALME-3M melanoma)
C=CC1=C(C)C2=NC1=CC1=NC(=CC3=C(C)C4=C(O)[C@H](C(=O)OC)C(=C5NC(=C2)[C@@H](C)[C@@H]5CCC(=O)O)C4=N3)C(CC)=C1C	> 100	9.12 µM	> 40	3.54 µM	> 100	4.63 µM	8.25 µM	4.23 µM	> 23.7	> 100 µM	–	–	–	–	–	–	–	–	–	–
CCNCCNc1cc(-c2ccc(C#N)cc2)c(C#N)c2nc3ccccc3n12	11.9	21.3 µM	14.8	3.72 µM	17.4	3.49 µM	4.24 µM	20.8 µM	18.4	3.99 µM	2.59 µM	5.3 µM	3.8 µM	1.86 µM	4.69 µM	1.77 µM	1.66 µM	6.04 µM	4.66 µM	1.8 µM
COc1ccc(F)c(F)c1C(=O)c1cnc(NC2CCN(S(C)(=O)=O)CC2)nc1N	> 24.4	5.28 µM and 3.3 µM	> 100	> 27.2 µM and 4.78 µM	> 100	3.13 µM and 3.07 µM	3.62 µM and 2.73 µM	> 26.8 µM and 5.65 µM	> 100	4.79 µM and 5.38 µM	1.28 µM and 0.408 µM	0.814 µM and 0.397 µM	4.35 µM and 4.24 µM	1.06 µM and 0.412 µM	0.576 µM and 0.445 µM	0.536 µM and 0.406 µM	1.26 µM and 1.09 µM	0.961 µM and 0.987 µM	0.728 µM and 0.251 µM	1.04 µM and 1.49 µM
Cc1ccc(-n2nc(C(C)(C)C)cc2NC(=O)NCc2cc(F)ccc2Oc2ccc3c(cnn3CCO)c2)cc1	> 100	> 85.3 µM	> 83.9	> 20.9 µM	> 100	> 93.1 µM	> 100 µM	> 48.8 µM	> 31.6	> 10 µM and 1.73 µM	0.562 µM and 2.75 µM	5.6 µM and 6.17 µM	> 10 µM and 9.24 µM	0.511 µM and 0.989 µM	> 10 µM and 17.9 µM	> 10 µM and 6.83 µM	> 10 µM and 14.8 µM	> 10 µM and 5.39 µM	> 10 µM and 1.89 µM	0.396 µM and 0.305 µM
COc1cc2nc(-c3ccc(C(F)(F)F)cc3)cc(OCCCN3CCCC3)c2cc1OC	10.6	17.6 µM	> 53.4	5.65 µM	21.5	12.6 µM	4.49 µM	10 µM	18.9	5.59 µM	0.737 µM	2.9 µM	6.65 µM	1.69 µM	5.23 µM	2.56 µM	0.207 µM	2.07 µM	0.803 µM	1.66 µM
CC1(C)CC(=O)C(CC2C(=O)c3ccccc3C2=O)C(=O)C1	> 100	> 100 µM	> 100	> 100 µM	> 100	> 100 µM	> 100 µM	> 100 µM	> 100	> 100 µM	–	–	–	–	–	–	–	–	–	–
N#CC(C#N)=c1c2nsnc2c(=C(C#N)C#N)c2nsnc12	31.9	3.91 µM	–	3.3 µM	4.33	3.46 µM	3.01 µM	3.25 µM	3.3	3.11 µM	–	–	–	–	–	–	–	–	–	–
Cc1c2ccncc2c(C)c2c1[nH]c1ccc(O)c(OCC(F)(F)F)c12	20.1	19.4 µM	19.9	22.4 µM	9.17	16.3 µM	21.1 µM	19.3 µM	25.8	22.3 µM	–	–	–	–	–	–	–	–	–	–
Cc1ccc(C)c(N2C(=O)C(=O)C(c3nc4ccccc4s3)C(=Nc3cccc4c(=O)[nH][nH]c(=O)c34)C2=O)c1 (stereo unspecified)	> 100	> 100 µM	> 100	> 100 µM	> 100	> 100 µM	> 100 µM	> 100 µM	> 100	> 100 µM	–	–	–	–	–	–	–	–	–	–
Cc1cccc(C)c1N1C(=O)C(=O)C(c2nc3ccccc3s2)C(=Nc2cccc3c(=O)[nH][nH]c(=O)c23)C1=O (stereo unspecified)	> 100	> 100 µM	> 100	> 100 µM	> 100	> 100 µM	> 100 µM	> 100 µM	> 100	> 100 µM	–	–	–	–	–	–	–	–	–	–
CC(=O)[CH-]C(=O)c1ccccc1.CC(=O)[CH-]C(=O)c1ccccc1.CC1(C)OCC(C2OC3OC(C)(C)OC3C2[O-])O1.CC[O-].[Ti+4] (stereo unspecified)	30.1	30 µM	61.1	25.1 µM	25.4	27.4 µM	–	29.9 µM	31.5	27.7 µM	15.2 µM	15.8 µM	21.9 µM	11.6 µM	12.4 µM	13.3 µM	6.6 µM	15.4 µM	14.2 µM	13.4 µM
Cc1cccc(N(CC(=O)O)S(=O)(=O)c2ccccc2)c1	> 100	> 100 µM	> 100	> 100 µM	> 100	> 100 µM	> 100 µM	> 100 µM	> 100	> 100 µM	–	–	–	–	–	–	–	–	–	–
COc1cccc(COc2cc(-n3cnc4ccccc43)sc2C(N)=O)c1	> 25	> 25 µM	> 25	> 25 µM	> 25	> 25 µM	> 25 µM	> 25 µM	> 25	> 25 µM	> 20.5 µM	> 16.6 µM	> 16.2 µM	> 24 µM	14.4 µM	16 µM	> 12.2 µM	> 25 µM	14.2 µM	> 25 µM
O=S1CSSC1	71.7	76.7 µM	53.3	59.8 µM	> 100	40.1 µM	92.6 µM	45.8 µM	36.7	> 100 µM	–	–	–	–	–	–	–	–	–	–
Clc1ccc2c(c1)N(c1ncnc3ccc(-c4cnc5[nH]ncc5c4)cc13)CC2	> 100	> 100 µM	–	> 100 µM	> 100	> 100 µM	0.517 µM	> 100 µM	> 100	> 100 µM	0.896 µM	2.68 µM	–	0.77 µM	1.46 µM	0.645 µM	0.0804 µM	1.07 µM	0.396 µM	1.12 µM
